Read-outs that look alike come from different tables or passages of the source.
Columns and labels:
hCA I [1] = molecular target: T1, hCA I (Homo sapiens, UniProt P00915); test: stopped-flow CO2 hydrase assay, hCA I; type: biochemical; settings: mean from three determinations, errors 5–10%
T1 construct: made in house
Procedure: (§1) An Applied Photophysics stopped-flow instrument has been used for assaying the CA catalysed CO2 hydration activity. […] The CO2 concentrations ranged from 1.7 to 17 mM for the determination of the kinetic parameters and inhibition constants. In particular, CO2 was bubbled in distilled deionised water for 30 min till saturation. A CO2 kit (Sigma, Milan, Italy) was used to measure the concentration in serially diluted solutions from the saturated one at the same temperature. […] The uncatalyzed rates were determined in the same manner and subtracted from the total observed rates. Stock solutions of inhibitor (1 µM) were prepared in distilled-deionised water and dilutions up to 0.1 nM were done thereafter with the assay buffer. […] The inhibition constants were obtained by non-linear least-squares methods using PRISM 3 and the Cheng-Prusoff equation[29], and represent the average from at least three different determinations. All recombinant CA isoforms were obtained in-house as previously reported[30]^,[31].

hCA II [2] = molecular target: T2, hCA II (Homo sapiens, UniProt P00918); test: stopped-flow CO2 hydrase assay, hCA II; type: biochemical; settings: mean from three determinations, errors 5–10%
T2 construct: made in house
Procedure: as §1

hCA IX [3] = molecular target: T3, hCA IX (Homo sapiens, UniProt Q16790); test: stopped-flow CO2 hydrase assay, hCA IX; type: biochemical; settings: mean from three determinations, errors 5–10%
T3 construct: made in house
Procedure: as §1

hCA XII [4] = molecular target: T4, hCA XII (Homo sapiens, UniProt O43570); test: stopped-flow CO2 hydrase assay, hCA XII; type: biochemical; settings: mean from three determinations, errors 5–10%
T4 construct: made in house
T4 sequence (O43570 25-354): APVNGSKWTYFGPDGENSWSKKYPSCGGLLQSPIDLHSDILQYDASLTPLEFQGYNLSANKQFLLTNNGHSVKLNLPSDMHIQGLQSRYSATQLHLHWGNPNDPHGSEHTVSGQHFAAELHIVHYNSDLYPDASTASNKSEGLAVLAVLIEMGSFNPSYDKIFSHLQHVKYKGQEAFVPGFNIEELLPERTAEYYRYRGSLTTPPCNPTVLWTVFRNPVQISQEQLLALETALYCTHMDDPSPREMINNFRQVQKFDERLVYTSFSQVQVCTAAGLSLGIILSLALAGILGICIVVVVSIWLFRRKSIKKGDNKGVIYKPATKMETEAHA
Procedure: as §1

hCA I [5] = molecular target: T1, hCA I; set-up: method as in PMID 25407638; settings: lead compound, earlier report; cited from earlier work
hCA II [6] = molecular target: T2, hCA II; set-up: method as in PMID 25407638; settings: lead compound, earlier report; cited from earlier work
hCA IX [7] = molecular target: T3, hCA IX; set-up: method as in PMID 25407638; settings: lead compound, earlier report; cited from earlier work
hCA XII [8] = molecular target: T4, hCA XII; set-up: method as in PMID 25407638; settings: lead compound, earlier report; cited from earlier work

T1 sequence (P00915 whole entry): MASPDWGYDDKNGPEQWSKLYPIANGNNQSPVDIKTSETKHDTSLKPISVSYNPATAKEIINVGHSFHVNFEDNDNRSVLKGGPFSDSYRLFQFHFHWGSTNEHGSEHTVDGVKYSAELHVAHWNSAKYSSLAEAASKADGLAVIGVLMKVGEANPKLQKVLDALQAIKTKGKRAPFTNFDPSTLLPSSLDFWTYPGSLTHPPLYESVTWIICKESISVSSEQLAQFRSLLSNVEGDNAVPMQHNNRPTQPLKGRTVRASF

SMILES	Ki (hCA I [1])	Ki (hCA II [2])	Ki (hCA IX [3])	Ki (hCA XII [4])	further results
CCCCC[S+]([O-])c1ccccc1C(N)=O (stereo not shown) [Compound 37]	> 100 µM	> 100 µM	27.3 µM	> 100 µM	
C[S+]([O-])c1ccccc1C(N)=O (stereo not shown) [Compound 25]	> 100 µM	> 100 µM	34.5 µM	> 100 µM	
CS(=O)(=O)c1ccccc1C(N)=O [Compound 26]	> 100 µM	> 100 µM	14 µM	> 100 µM	
CCCCC[S+]([O-])c1ccccc1C(=O)OC (stereo not shown) [Compound 23]	> 100 µM	> 100 µM	> 100 µM		Ki hCA I (hCA I [1]): inactive; Ki hCA II (hCA II [2]): inactive; Ki hCA IX (hCA IX [3]): inactive
CNC(=O)c1ccccc1S(=O)(=O)Cc1ccccc1 [Compound 21]	> 100 µM	68.2 µM	25.8 µM		
COC(=O)c1ccccc1CCc1ccccc1 [Compound 46]	> 100 µM	> 100 µM	> 100 µM	> 100 µM	
CCCSc1ccccc1C(N)=O [Compound 30]	> 100 µM	90.9 µM	> 100 µM	> 100 µM	
COC(=O)c1ccccc1OCc1ccccc1 [Compound 44]	> 100 µM	> 100 µM	> 100 µM	> 100 µM	
NC(=O)c1ccccc1S(=O)(=O)Cc1ccccc1 [Compound 18]	> 10 µM	2.67 µM	> 10 µM	0.066 µM	Ki hCA IX (hCA IX [3]): completely lost the affinity
CCSc1ccccc1C(N)=O [Compound 27]	> 100 µM	> 100 µM	16.7 µM	> 100 µM	
CSc1ccccc1C(N)=O [Compound 24]	> 100 µM	> 100 µM	6.5 µM	> 100 µM	
COC(=O)c1ccccc1S(=O)(=O)Cc1ccc(Cl)cc1 [Compound 12]	> 100 µM	40.1 µM	21.1 µM		
CC(=O)c1ccccc1OCc1ccccc1 [Compound 52]	> 100 µM	> 100 µM	> 100 µM	> 100 µM	
CCCCSc1ccccc1C(N)=O [Compound 33]	> 100 µM	> 100 µM	2.5 µM	> 100 µM	
CCCC[S+]([O-])c1ccccc1C(=O)OC (stereo not shown) [Compound 22]	> 100 µM	> 100 µM	> 100 µM		Ki hCA I (hCA I [1]): inactive; Ki hCA II (hCA II [2]): inactive; Ki hCA IX (hCA IX [3]): inactive
O=C(O)c1ccccc1S(=O)(=O)Cc1ccccc1 [Compound 6]	> 100 µM	> 100 µM	2.3 µM		
O=C(O)c1ccccc1[S+]([O-])Cc1ccccc1 (stereo not shown) [lead compound, 2-(benzylsulfinyl)benzoic acid]					Ki (hCA I [5]): > 10 µM; Ki (hCA II [6]): 0.15 µM; Ki (hCA IX [7]): 1.29 µM; Ki (hCA XII [8]): > 10 µM

SMILES	Ki (hCA I [1])	Ki (hCA II [2])	Ki (hCA IX [3])	Ki (hCA XII [4])	further results
O=C(NO)c1ccccc1NCc1ccccc1 [Compound 51]	> 100 µM	> 100 µM	> 100 µM	> 100 µM	
COC(=O)c1ccccc1S(=O)(=O)Cc1ccccc1 [Compound 9]	> 100 µM	> 100 µM	11.4 µM		
CCCC[S+]([O-])c1ccccc1C(N)=O (stereo not shown) [Compound 34]	> 100 µM	> 100 µM	36.4 µM	> 100 µM	
CCC[S+]([O-])c1ccccc1C(N)=O (stereo not shown) [Compound 31]	> 100 µM	> 100 µM	38.2 µM	> 100 µM	
NC(=O)c1ccccc1NC(=O)Cc1ccccc1 [Compound 50]	> 100 µM	> 100 µM	> 100 µM	> 100 µM	
CCS(=O)(=O)c1ccccc1C(N)=O [Compound 29]	> 100 µM	> 100 µM	22.7 µM	> 100 µM	
O=C(Cc1ccccc1)Nc1ccccc1C(=O)O [Compound 42]	> 100 µM	> 100 µM	> 100 µM	> 100 µM	
CCCCCSc1ccccc1C(N)=O [Compound 36]	> 100 µM	> 100 µM	2.7 µM	> 100 µM	
COC(=O)c1ccccc1SCC(=O)c1ccccc1 [Compound 13]	> 100 µM	> 100 µM	> 100 µM		
Nc1ccccc1C(=O)O [Compound 43, anthranilic acid]	> 100 µM	> 100 µM	> 100 µM	> 100 µM	
CCCS(=O)(=O)c1ccccc1C(N)=O [Compound 32]	> 100 µM	> 100 µM	2.3 µM	> 100 µM	
CCCCCS(=O)(=O)c1ccccc1C(N)=O [Compound 38]	> 100 µM	> 100 µM	8.7 µM	> 100 µM	
CC[S+]([O-])c1ccccc1C(N)=O (stereo not shown) [Compound 28]	> 100 µM	> 100 µM	40.9 µM	> 100 µM	
COC(=O)c1ccccc1S(=O)(=O)CC(=O)c1ccccc1 [Compound 15]	> 100 µM	> 100 µM	> 100 µM		
COC(=O)c1ccccc1SCc1ccc(Cl)cc1 [Compound 10]	> 100 µM	45.7 µM	1 µM		
CCCCS(=O)(=O)c1ccccc1C(N)=O [Compound 35]	> 100 µM	> 100 µM	13.5 µM	> 100 µM	

Now from value to molecule, other results behind:

Ki (hCA I [1])	Ki (hCA II [2])	Ki (hCA IX [3])	Ki (hCA XII [4])	SMILES	further results
> 100 µM	63.2 µM	2 µM		CC(=O)c1ccccc1[S+]([O-])Cc1ccccc1 (stereo not shown) [Compound 2]	
> 10 µM	8.22 µM	0.046 µM	2.66 µM	NC(=O)c1ccccc1SCc1ccccc1 [Compound 16]	Ki hCA XII (hCA XII [4]): medium-potency inhibitor
> 100 µM	> 100 µM	18.1 µM		COC(=O)c1ccccc1[S@@+]([O-])Cc1ccc(Cl)cc1 [(S)-11]	
> 100 µM	> 100 µM	16.4 µM		CC(=O)c1ccccc1S(=O)(=O)Cc1ccccc1 [Compound 3]	
> 100 µM	86.3 µM	19.8 µM		CNC(=O)c1ccccc1SCc1ccccc1 [Compound 19]	
> 100 µM	> 100 µM	> 100 µM	> 100 µM	O=C(O)c1ccccc1NCc1ccccc1 [Compound 40]	
> 100 µM	52.2 µM	22.8 µM		CNC(=O)c1ccccc1[S@+]([O-])Cc1ccccc1 [(R)-20]	
> 100 µM	38.9 µM	24.6 µM		CNC(=O)c1ccccc1[S@@+]([O-])Cc1ccccc1 [(S)-20]	
> 100 µM	84.9 µM	15.3 µM		COC(=O)c1ccccc1[S@+]([O-])Cc1ccccc1 [(R)-8]	
> 100 µM	> 100 µM	> 100 µM	> 100 µM	CC(=O)c1ccccc1NCc1ccccc1 [Compound 53]	
> 100 µM	> 100 µM	> 100 µM	> 100 µM	O=C(O)c1ccccc1CCc1ccccc1 [Compound 41]	
> 100 µM	0.093 µM	1.2 µM		O=C(O)c1ccccc1[S@@+]([O-])Cc1ccccc1 [(S)-5]	
> 100 µM	> 100 µM	1.1 µM		CC(=O)c1ccccc1SCc1ccccc1 [Compound 1]	
> 100 µM	> 100 µM	> 100 µM	> 100 µM	O=C(O)c1ccccc1OCc1ccccc1 [Compound 39]	
> 100 µM	65.7 µM	20 µM		COC(=O)c1ccccc1[S@@+]([O-])Cc1ccccc1 [(S)-8]	
> 100 µM	0.21 µM	1.4 µM		O=C(O)c1ccccc1[S@+]([O-])Cc1ccccc1 [(R)-5]	
> 100 µM	> 100 µM	> 100 µM	> 100 µM	COC(=O)c1ccccc1NCc1ccccc1 [Compound 45]	
> 100 µM	> 100 µM	> 100 µM		COC(=O)c1ccccc1[S+]([O-])CC(=O)c1ccccc1 (stereo not shown) [Compound 14]	
> 100 µM	52.2 µM	2.2 µM		NC(=O)c1ccccc1[S@+]([O-])Cc1ccccc1 [(R)-17]	
> 100 µM	51.9 µM	1.9 µM		NC(=O)c1ccccc1[S@@+]([O-])Cc1ccccc1 [(S)-17]	
> 100 µM	> 100 µM	1.4 µM		COC(=O)c1ccccc1[S@+]([O-])Cc1ccc(Cl)cc1 [(R)-11]	
> 100 µM	> 100 µM	> 100 µM	> 100 µM	NC(=O)c1ccccc1CCc1ccccc1 [Compound 49]	
> 100 µM	75.2 µM	15 µM		COC(=O)c1ccccc1SCc1ccccc1 [Compound 7]	
> 100 µM	> 100 µM	> 100 µM	> 100 µM	NC(=O)c1ccccc1NCc1ccccc1 [Compound 48]	
